Experimental data taken from patent US9746463B2 (THE TRUSTEES OF COLUMBIA UNIVERSITY IN THE CITY OF NEW YORK, priority 2006, dated 2017).
Ends that are not written are not given here.

How the values were obtained:
Format in all cases: in vivo, mouse
[1] = Osteocalcin subcutaneous infusion in wt mice: glucose tolerance after glucose injection; details: wild type mice, 0.3 or 3 ng/hour subcutaneously for 14 days, then glucose injection, 120 minutes, vs PBS
Protocol: FIG. 11. […] Wt mice were infused subcutaneously with indicated doses of recombinant osteocalcin or PBS for 14 days before receiving a single injection of glucose. Blood glucose was measured thereafter at indicated times.
Metabolic studies. For glucose tolerance test (GTT), glucose (2 g/kg body weight (BW)) was injected intraperitoneally (IP) after an overnight fast and blood glucose was monitored using blood glucose strips and the Accu-Check glucometer (Roche) at indicated times. For glucose stimulated insulin secretion test (GSIS), glucose (3 g/kg BW) was injected IP after an overnight fast; sera were collected from tails and insulin measured as described (Mauvais-Jarvis et al., 2000). For insulin tolerance test (ITT), mice were fasted for six hours, injected IP with insulin (0.2 U/kg BW) and blood glucose levels were measured at indicated times as described (Mauvais-Jarvis et al., 2002). ITT data are presented as percentage of initial blood glucose concentration. […] Streptozotocin ([…] single injection, Sigma) was injected IP and blood glucose measured as described above every 2 days thereafter. […] Food intake was measured using metabolic cages as the daily change of food weight. Energy expenditure was measured using metabolic cages connected to a calorimeter (Columbus Instrument). Heat values (Kcal/Hr) were recorded over 2 days and reported to each mouse BW. […]

[2] = Osteocalcin subcutaneous infusion in wt mice: body weight and gonadal fat pad mass
Protocol: (FIG. 13A) Indicated doses of recombinant osteocalcin or PBS were infused subcutaneously for 28 days in wt mice. Body weight was recorded at indicated days. (FIG. 13B) Gonadal fat pad mass was measured after 28 days.
In another in vivo experiment, the effect of uncarboxylated osteocalcin on body weight and fat pad mass was monitored (FIG. 13). Wild type mice were infused subcutaneously for 28 days with PBS or uncarboxylated osteocalcin at 0.3, 1 or 3 ng/hour. […] (FIG. 13) Gonadal fat pad mass, measured after 28 days, decreased by about %18 with 3 ng/hour uncarboxylated osteocalcin treatment.

[3] = Osteocalcin subcutaneous infusion in GTG-induced obesity
Protocol: FIG. 14. […] Wt mice were injected with gold thioglucose (GTG) or vehicle to induce hyperphagia and obesity. Two weeks later they were implanted with subcutaneous osmotic pumps infusing […] of recombinant osteocalcin or PBS for 28 days before. Body weight gain was recorded thereafter at indicated days.
The effect of uncarboxylated osteocalcin on GTG-induced obesity was investigated (FIG. 14). Wild type mice were injected with gold thioglucose (GTG) to induce hyperphagia and obesity or vehicle. Two weeks later they were implanted with subcutaneous osmotic pumps infusing 1 ng/hr of recombinant uncarboxylated osteocalcin or PBS for 28 days. […] At 28 days, body weight was reduced by about 15% with uncarboxylated osteocalcin treatment.

Question: For “uncarboxylated osteocalcin: Recombinant mouse osteocalcin bacterially produced as GST fusion, cleaved with thrombin; completely undercarboxylated at all three sites (YLGASVPSPDPLEPTREQCELNPACDELSDQYGLKTAYKRIYGITI; not fully specified; ends and bridges not checked; UniProt P86546 50-95, looked up)”, which glucose tolerance [1] is on record?
Answer: increased glucose tolerance

Question: What about the glucose tolerance ([1]; listed as recombinant osteocalcin) of the same substance?
Answer: increases glucose tolerance

Question: What about the “decrease of gonadal fat pad mass” value ([2]; 3 ng/hour, measured after 28 days) of the same substance?
Answer: ~18%

Question: And the fat mass ([2]; indicated doses infused subcutaneously for 28 days (figure legend))?
Answer: decreases fat mass

Question: And the “gonadal fat pad mass” value ([2]; the other doses (0.3, 1 ng/hour), 28 days)?
Answer: did not significantly decrease fat pad mass

Question: What about the body weight ([2]; wild type mice, 0.3, 1 or 3 ng/hour subcutaneously for 28 days, highest dose most effective) of the same substance?
Answer: slightly reduced

Question: And the body weight gain ([3]; GTG-injected wild type mice, 1 ng/hr by osmotic pump for 28 days, from 7 days on, vs PBS)?
Answer: significantly reduced

Question: What about the “reduction of body weight” value ([3]; GTG-injected wild type mice, 1 ng/hr, at 28 days) of the same substance?
Answer: about 15%

Question: What about the GTG-induced obesity ([3]; wt mice, infusion for 28 days (figure legend)) of the same substance?
Answer: prevents GTG-induced obesity
